Assay results as given in PubChem BioAssay (NCI).
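All cell lines were grown in 96-well plates and treated with compound for 48 hours. Abbreviation: GI50, concentration required for 50% inhibition of growth. TGI is the concentration that stops growth completely.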

Tests used:
Experiment in all cases: DTP human tumour cell line panel, 48 h
[1] = tested on: OVCAR-5 ovarian
[2] = tested on: CAKI-1 renal
[3] = tested on: MCF7 breast
[4] = tested on: HS 578T breast
[5] = tested on: SN12C renal
[6] = tested on: HL-60(TB) leukemia
[7] = tested on: SF-268 CNS
[8] = tested on: HCT-15 colon
[9] = tested on: SF-539 CNS
[10] = tested on: HCT-116 colon
[11] = tested on: M14 melanoma
[12] = tested on: NCI-H460 lung
[13] = tested on: OVCAR-8 ovarian
[14] = tested on: HOP-92 NSCLC
[15] = tested on: SF-295 CNS
[16] = tested on: CCRF-CEM leukemia
[17] = tested on: MDA-MB-231 breast
[18] = tested on: SNB-19 CNS
[19] = tested on: RPMI-8226 leukemia
[20] = tested on: K-562 leukemia
[21] = tested on: UO-31 renal
[22] = tested on: MALME-3M melanoma
[23] = tested on: DU-145 prostate
[24] = tested on: A549 NSCLC
[25] = tested on: HCC-2998 colon
[26] = tested on: BT-549 breast
[27] = tested on: U251 CNS
[28] = tested on: OVCAR-4 ovarian
[29] = tested on: HOP-62 NSCLC
[30] = tested on: KM12 colon
[31] = tested on: HT29 colon
[32] = tested on: NCI/ADR-RES ovarian
[33] = tested on: MDA-MB-435
[34] = tested on: RXF 393 renal
[35] = tested on: UACC-257 melanoma
[36] = tested on: EKVX NSCLC
[37] = tested on: SK-OV-3 ovarian
[38] = tested on: NCI-H23 lung
[39] = tested on: UACC-62 melanoma
[40] = tested on: NCI-H226 lung
[41] = tested on: SNB-75 CNS
[42] = tested on: OVCAR-3 ovarian
[43] = tested on: SK-MEL-2 melanoma
[44] = tested on: SK-MEL-5 melanoma
[45] = tested on: A498 renal
[46] = tested on: IGROV1 ovarian
[47] = tested on: MOLT-4 leukemia
[48] = tested on: ACHN renal
[49] = tested on: 786-0 renal
[50] = tested on: PC-3 prostate
[51] = tested on: NCI-H522 lung
[52] = tested on: SW-620 colon
[53] = tested on: TK-10 renal
[54] = tested on: COLO 205 colon
[55] = tested on: SK-MEL-28 melanoma
[56] = tested on: T-47D breast

Cn1cc(-c2cc3ncnc(Nc4ccc(NC(=O)Nc5cc(C(C)(C)C)on5)cc4)c3s2)cn1
GI50 [1]: 3490 nM | TGI [1]: 21000 nM | GI50 [2]: 170 nM | TGI [2]: 13900 nM | GI50 [3]: 933 nM | TGI [3]: 4860 nM | GI50 [4]: 400 nM | TGI [4]: 6550 nM | GI50 [5]: 379 nM | TGI [5]: 28900 nM | GI50 [6]: 1100 nM | TGI [6]: 3510 nM | GI50 [7]: 1360 nM | TGI [7]: > 37200 nM | GI50 [8]: 490 nM | TGI [8]: > 28500 nM | GI50 [9]: 216 nM | TGI [9]: 1870 nM | GI50 [10]: 377 nM | TGI [10]: 6160 nM | GI50 [11]: 244 nM | TGI [11]: 4270 nM | GI50 [12]: 296 nM | TGI [12]: 23800 nM | GI50 [13]: 864 nM | TGI [13]: > 100000 nM | GI50 [14]: 1560 nM | TGI [14]: 14900 nM | GI50 [15]: 552 nM | TGI [15]: 2220 nM | GI50 [16]: 366 nM | TGI [16]: 2880 nM | GI50 [17]: 1740 nM | TGI [17]: 31700 nM | GI50 [18]: 3740 nM | TGI [18]: > 38300 nM | GI50 [19]: 441 nM | TGI [19]: 2470 nM | GI50 [20]: 295 nM | TGI [20]: > 100000 nM | GI50 [21]: 320 nM | TGI [21]: 9340 nM | GI50 [22]: 348 nM | TGI [22]: 3760 nM | GI50 [23]: 686 nM | TGI [23]: > 34900 nM | GI50 [24]: 764 nM | TGI [24]: 39300 nM | GI50 [25]: 2500 nM | TGI [25]: 11000 nM | GI50 [26]: 835 nM | TGI [26]: 4370 nM | GI50 [27]: 1450 nM | TGI [27]: > 40300 nM | GI50 [28]: 619 nM | TGI [28]: > 56700 nM | GI50 [29]: 1870 nM | TGI [29]: 35900 nM | GI50 [30]: 35.1 nM | TGI [30]: 18200 nM | GI50 [31]: 631 nM | TGI [31]: 3570 nM | GI50 [32]: 2950 nM | TGI [32]: > 44500 nM | GI50 [33]: 600 nM | TGI [33]: 18100 nM | GI50 [34]: 307 nM | TGI [34]: 1550 nM | GI50 [35]: 2120 nM | TGI [35]: 14700 nM | GI50 [36]: 1750 nM | TGI [36]: 15000 nM | GI50 [37]: 314 nM | TGI [37]: 16300 nM | GI50 [38]: 764 nM | TGI [38]: 6540 nM | GI50 [39]: 498 nM | TGI [39]: 8810 nM | GI50 [40]: 517 nM | TGI [40]: 19700 nM | GI50 [41]: 182 nM | TGI [41]: 4430 nM | GI50 [42]: 1970 nM | TGI [42]: 8440 nM | GI50 [43]: 390 nM | TGI [43]: 2470 nM | GI50 [44]: 904 nM | TGI [44]: 2860 nM | GI50 [45]: 390 nM | TGI [45]: 5170 nM | GI50 [46]: 363 nM | TGI [46]: 21300 nM | GI50 [47]: 397 nM | GI50 [48]: 348 nM | TGI [48]: 13200 nM | GI50 [49]: 720 nM | TGI [49]: 8390 nM | GI50 [50]: 791 nM | TGI [50]: 13700 nM | GI50 [51]: 916 nM | TGI [51]: 5150 nM | GI50 [52]: 994 nM | TGI [52]: > 35600 nM | GI50 [53]: 2980 nM | TGI [53]: 17700 nM | GI50 [54]: 436 nM | TGI [54]: 6420 nM | GI50 [55]: 1060 nM | TGI [55]: 10500 nM | GI50 [56]: 513 nM | TGI [56]: > 29000 nM
